Reference: patent publication US9133235B2, “Macrocyclic antagonists of the motilin receptor for treatment of gastrointestinal dysmotility disorders” (Ocera Therapeutics, Inc., priority 2006, dated 2015)
Like-named read-outs stand apart in the source and are kept apart here.

Test: Plasma concentrations of compound 552 in beagle dogs during the CID study
Format: in vivo
Conditions: male, dog, iv; for AUC(0-t): read-out: average AUC0-t (converted)
Description: The test article No. 2 (compound 552) was intravenously infused via an implanted catheter over 45 minutes to all the animals in Group 4 four days before the start of TA1 (irinotecan) treatment and throughout the 28-day study period. […] The daily dosage (i.e. 5.0, 15.0 and 5.0 mg/kg/day for Groups 2 to 4 respectively) was administered by two equal doses (i.e. 2.5, 7.5 and 2.5 mg/kg/occasion for Groups 2 to 4 respectively) which were separate by at least 6 h. Each dose was infused at a dose volume of 10 mL/kg/h. The vehicle for compound 552 was administered to all dogs in Group 5 by following the same dosing procedures and regimen for compound 552 administration for 23 days (from Day 6 to Day 28). The actual volume infused was calculated and adjusted based on the most recent practical body weight of each animal. The syringes/bags were changed at appropriate intervals as necessary and the weights recorded prior to the start and at the end of the infusion.
Body weights were recorded for all animals once prior to group assignment, and approximately one week prior to initiation of treatment. Body weights were recorded for all animals up to 1 day prior to dosing and twice weekly thereafter during the treatment/observation periods, as well as terminally prior to necropsy (fasted). Food consumption was measured daily during the week prior to treatment and throughout the treatment/observation periods. A series of blood samples (approximately 2.0 mL each) were removed from each dog in Groups 2 and 3 after the first (am) infusion on the first day of treatment with compound 552 and after the second (pm) infusion on the last day of treatment with compound 552. (Note: the second (pm) infusion on the first day of treatment with compound 552 was performed after completion of the last blood sampling). For this purpose, each dog was bled by venipuncture and the samples collected into tubes containing the anticoagulant, K2 EDTA. Tubes were placed on wet ice pending processing. On each occasion, samples were collected prior to the start of infusion, 5, 15, 30, 45, 50, 65, 95, 135 minutes, 3 and 6 hours after the start of infusion of compound 552. Following collection, the samples were centrifuged at approximately 1500×g, approximately 4° C., for at least 10 minutes and the resulting plasma recovered and dispensed into two aliquots and stored frozen (at approximately −80° C.) pending shipment.
Plasma concentrations of compound 552 in male beagle dogs receiving low and high intravenous doses of compound 552 as part of the above experiment were determined. Plasma samples were prepared for analysis by solid phase extraction and analyzed by LC-MS/MS. […] The average AUC0-t was similar on the first (78,233 ng·min/mL) and last day (83,047 ng·min/mL) of dosing for the low dose group (2.5 mg/kg/occasion) and was proportionally higher on the first day (246,073 ng·min/mL) of dosing for the high dose group (7.5 mg/kg/occasion).

CCC[C@@H]1NC(=O)[C@@H](C(C)C)NC(=O)[C@@H](Cc2ccc(O)c(Cl)c2)N[C@@H](C)COc2ccccc2CCCNC1=O [Compound 552] gave a Cmax (2.5 mg/kg, 2.5 mg/kg 45-min infusion, first day of treatment) of ~1500 ng/mL, a Cmax (2.5 mg/kg, 2.5 mg/kg 45-min infusion, last day of treatment) of ~1800 ng/mL and an AUC(0-t) (2.5 mg/kg, low dose group 2.5 mg/kg/occasion, first day) of 1300 ng·h/mL. It also gave an AUC(0-t) (2.5 mg/kg, low dose group 2.5 mg/kg/occasion, last day) of 1380 ng·h/mL, a Cmax (7.5 mg/kg, 7.5 mg/kg 45-min infusion, first day of treatment) of ~3400 ng/mL and a Cmax (7.5 mg/kg, 7.5 mg/kg 45-min infusion, last day of treatment) of ~5000 ng/mL. For the same compound, the AUC(0-t) (7.5 mg/kg, high dose group 7.5 mg/kg/occasion, first day) was 4100 ng·h/mL and the AUC(0-t) (7.5 mg/kg, high dose group 7.5 mg/kg/occasion, last day, one animal with particularly high AUC) was 6350 ng·h/mL.
